Results taken from patent publication US20030166537A1, “Use of GDNF for treating corneal defects” (Biopharm Gesellschaft Zur Biotechnologischen Entwicklung …, priority 1999, published 2003).

Assays:
[1] = system: ERK1, ERK2, JNK1 and JNK2; assay: western blot of phosphorylated MAP kinases in cultured human corneal epithelium; type: cell-based; conditions: for phosphorylation of ERK1 and ERK2: 200 ng/ml factor vs serum-free control medium; for phosphorylation of ERK1 and ERK2 / phosphorylation of JNK1/2: human epithelial cells; for phosphorylation of JNK1/2: vs control
Procedure: (§1) In order to evaluate the effect of GDNF and other neurotrophic factors on the activation of signal transduction pathways in cultured corneal epithelial and stromal keratocytes, western blots were performed for detecting an accumulation of phosphorylated MAP kinases ERK and JNK in the presence of GDNF, NGF and BDNF. Human stromal keratocytes were cultured in RPMI 1640 medium containing L-glutamine (glutaMAX) or DMEM with 10% FBS for one day and starved in serum-free medium for another day. Cultures were then washed with PBS and incubated in serum-free DMEM without additives or with recombinant human GDNF (200 ng/ml), recombinant human NGF (200 ng/ml) and recombinant human BDNF (200 ng/ml) (all obtained from R & D Systems, Mineapolis, Minn., USA) for 30 min. Some cultures were incubated with an inhibitor of MAP kinases (PD 98059, Torcris Cookson Ballwin, Mo., USA) at 100 μM for 1 h prior to exposure to neurotrophines. After washing with PBS, culture cells were solubilized in lysis buffer containing 50 mM Tris-Cl (pH 8.0), 150 mM NaCl, 0.02% sodium azide, 100 μg/ml PMSF, 1% Triton X-100 and a mixture of several protein inhibitors (Complete®, Boehringer Mannheim) (one tablet/50 ml buffer). 50 μg total protein per lane was fractionated by a 10% STS-MOPS NUPAGE Bis-tris gel (NOVEX, San Diego, Calif., USA) and blotted onto nitrocellulose membrane. Membranes were stained with diluted polyclonal antibodies against ERK1, ERK2, JNK1 and JNK2 (Santa Cruz Biotechnology, Santa Cruz, Calif., USA). Also a polyclonal antibody was used which recognizes the […] form of either ERK1 and ERK2 which was raised against the catalytic core of the phosphorylated threonine residue 183 and tyrosine residue 185 of mammalian ERK2. Similarily, a polyclonal antibody recognizing the phosphorylated form of JNK1 and JNK2 was used (both from Promega). In the last step the membranes were visualized with the ECL western blot analysis system (Amersham).

[2] = system: ERK1, ERK2, JNK1 and JNK2; assay: western blot of phosphorylated MAP kinases in cultured human corneal stromal keratocytes; type: cell-based; conditions: for phosphorylation of ERK1 and ERK2: 200 ng/ml factor vs control; for phosphorylation of JNK1: vs serum-free medium
Procedure: as §1

[3] = target: T1, Ret (Homo sapiens, UniProt P07949); assay: immuno-precipitation and western blot of tyrosine-phosphorylated Ret in cultured corneal epithelial cells; type: cell-based; conditions: cells pretreated with herbimycin A, then GDNF 10 minutes
T1 construct: The level of phosphorylated Ret (approximately 150 kD) in cultured corneal epithelial cells (control) was low prior to addition of GDNF; endogenous in cells; host or cells: SV40-transformed human corneal epithelial cell line (Araki-Sasaki et al., 1995)
T1 sequence (P07949 29-1114): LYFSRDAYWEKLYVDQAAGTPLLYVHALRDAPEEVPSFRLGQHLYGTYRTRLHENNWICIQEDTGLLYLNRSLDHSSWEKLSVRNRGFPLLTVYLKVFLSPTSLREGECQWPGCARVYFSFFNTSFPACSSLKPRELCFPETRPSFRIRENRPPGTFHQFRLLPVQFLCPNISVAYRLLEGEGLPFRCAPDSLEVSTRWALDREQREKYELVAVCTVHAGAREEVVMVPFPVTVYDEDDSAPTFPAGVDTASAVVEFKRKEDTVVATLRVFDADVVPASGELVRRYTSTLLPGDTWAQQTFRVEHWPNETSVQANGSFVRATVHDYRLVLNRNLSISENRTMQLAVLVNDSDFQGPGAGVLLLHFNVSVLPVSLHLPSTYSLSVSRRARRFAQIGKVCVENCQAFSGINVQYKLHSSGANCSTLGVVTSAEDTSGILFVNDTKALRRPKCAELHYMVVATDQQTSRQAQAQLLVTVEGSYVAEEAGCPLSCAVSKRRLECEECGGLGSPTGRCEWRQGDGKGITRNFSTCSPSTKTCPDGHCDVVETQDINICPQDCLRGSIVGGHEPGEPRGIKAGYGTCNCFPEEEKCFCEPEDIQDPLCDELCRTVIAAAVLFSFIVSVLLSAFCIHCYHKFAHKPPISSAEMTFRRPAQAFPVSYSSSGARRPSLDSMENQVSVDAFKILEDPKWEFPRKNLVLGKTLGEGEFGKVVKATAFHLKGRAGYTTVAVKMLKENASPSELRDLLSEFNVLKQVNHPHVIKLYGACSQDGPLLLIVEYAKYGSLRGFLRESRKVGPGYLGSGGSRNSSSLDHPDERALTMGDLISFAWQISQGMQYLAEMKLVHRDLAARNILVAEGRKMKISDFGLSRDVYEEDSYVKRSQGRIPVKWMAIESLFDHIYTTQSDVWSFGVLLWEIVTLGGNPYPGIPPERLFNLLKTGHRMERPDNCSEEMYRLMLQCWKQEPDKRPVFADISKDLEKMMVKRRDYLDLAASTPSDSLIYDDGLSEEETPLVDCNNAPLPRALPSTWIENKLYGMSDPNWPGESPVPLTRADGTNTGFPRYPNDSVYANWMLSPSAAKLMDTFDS

[4] = system: FAK, Pyk2, cRaf, MEK1, Erk 1 and 2, Elk, RSK; assay: western blot of phosphorylated intracellular signaling proteins in corneal epithelial cells; type: cell-based, human; conditions: preincubation with herbimycin A for two hours
Procedure: In order to investigate which protein kinase cascades are activated by GDNF and artemin, corneal epithelial cells from the cell line were seeded at a density of 5×10^5 cells/75 cm^2 and cultured in SHEM with 10% FBS for one day. Cultures were then washed with PBS and incubated in serum-free SHEM without additives or with GDNF (200 ng/ml) or with artemin (250 ng) for 10 to 40 minutes. After washing with PBS, cultured cells were solubilized in lysis buffer containing 50 mM Tris2Cl (pH8.0), 150 mM NaCl, 0.02% sodium azide, 100 μg/ml phenylmethylsulfonyl fluoride, 1 mM Na3VO4, 1% Triton X-100 and a mixture of several protease inhibitors [complete™, Boehringer Mannheim (1 tablet/30 ml buffer)]. 80 μg total protein per lane was fractionated by NuPAGE 10% SDS-MOPS-Bis-Tris gel or NuPAGE 3-8% Tris-acetate gel (all from NOVEX, San Diego, Calif.) and blotted onto a nitrocellulose membrane. Phosphorylated proteins were detected with phospho-specific antibodies and visualized with the ECL western blot analysis system (Amersham). Antibodies against phospho-Raf(ser259), phospho-MEK1/2(ser217/221), phospho-MAPK (Erk1/2) (thr202/tyr204), phospho-p90 ribosomal S6 kinase (RSK) (ser381) and phospho-Elk-1(ser383) were obtained from New England Biolabs (Beverly, Mass.). Antibody against phospho-FAK (tyr397/tyr407/tyr576/tyr577/tyr861/tyr925) and phospho-Pyk2 (tyr402/tyr579/tyr/580/tyr881) were purchased from Biosource (Camarillo, Calif., USA). A monoclonal antibody against phospho-tyrosine came from Sigma (Deisenhofen, Germany).

[5] = system: corneal epithelial cells; assay: in vitro wound healing model with herbimycin A; type: cell-based; conditions: 10 μM Herbimycin A in presence of 250 ng/ml GDNF; 18 hours
Procedure: (§2) For in vitro wound healing assays primary corneal epithelial cells and cells from the corneal epithelial cell line were seeded at a density of 5×10^5 onto 60 mm plastic dishes with 2 mm grid (Sarstedt, Numbrecht, Germany) and cultured for 2 days until subconfluency. For experiments with artemin primary cultured rabbit corneal epithelial cells were used. These cells had been isolated with Dispase (1,2 U/ml) and trypsin/EDTA. Rabbit cells had been cultured in medium 500 with additives (Cascade Biologies).
The cell layer was injured under the microscope by inducing several parallel scratches with a soft plastic cell scrubber (Falcon, Becton and Dickinson, Heidelberg, Germany). The tip of the scrubber was cut and measured about 1 mm and consequently the width of the scratch in the cell layer was also about 1 mm. Selected areas in the dishes were marked with a very fine marker pen and consecutive images were taken at different time points at 5×magnification under an inverted phase contrast microscope (Axiovert 25, Zeiss, Jena, Germany) equipped with a video camera. […] For each condition four representative areas were evaluated within three dishes. […] 18 hours later the mean diameter of the same scratch was calculated again and expressed in percent of the diameter at the beginning of the experiment. […]

[6] = system: primary rabbit corneal epithelial cells; assay: single cell clonal growth assay (colony formation, clonal proliferation); type: cell-based; conditions: 10 ng/ml; day 6; control 40±20
Text: In order to evaluate the effect of GDNF on corneal proliferation, recombinant human GDNF was used (R&D, Minneapolis, Minn., USA). For the evaluation of the effect on corneal epithelial proliferaton a single cell clonal growth model was utilized which allows to determine the effect of the given growth factor on both colony formation as well as clonal expansion (Kruse et al., 1991). New Zealand white rabbits were housed and treated according to the ARVO Resolution of Animals in Research and under observation of German Federal Laws and the laws of the State of Baden-Württemberg. Prior to sacrifice with an intravenous overdose of pentobarbital, they received an intramuscular injection of xylazine hydrochloride and ketamine hydrochloride. The details of the clonal growth assay are described in Kruse et al. (1991). 5000 viable cells were seeded in each 16 mm dish in serum-free medium MCDB 151 with a supplement (S) of insulin (5 μg/ml), transferrin (5 μg/ml), selenium (5 ng/ml) and hydrocortisone (5 μg/ml) (all from Sigma, Deisenhofen, Germany). […] This quantification was facilitated by the use of dishes which contained a grit on the bottom which is roughly 2 mm wide (from Sarstedt, Newton, N.C., USA). For data collection the entire surface area of four randomly selected dishes for each condition was screened. Furthermore, the number of cells per colony was determined in 75 randomly selected colonies for each condition. Furthermore, the total number of cells/dish was calculated in order to carry out an evaluation for artemin. In order to stimulate the cellular proliferation, GDNF (50 or 200 ng/ml) or artemin (250 ng/ml) was added to the medium. In order to estimate the rate of proliferation after 12 days (a time when neighbouring colonies started to grow into each other and, therefore, prevented numerical quantification) dishes were fixed in −20° C. methanol and stained with methylene blue.
All experiments examining the effect of GDNF on corneal proliferation were performed in triplicate with cells from different donors. The influence of growth factor on colony formation, colony size and cell number was studied using one-way analysis of variance. […] Student's t-test was employed to determine which differences were significant after analysis of variance.

[7] = system: primary human corneal epithelial cells; assay: in vitro wound healing assay (scratch wound), primary cells; type: cell-based; conditions: 18 h, control less than 10%
Procedure: as §2
(§3) The cell layer was injured under the microscope by inducing several parallel scratches with a soft plastic cell scrubber (Falcon, Becton and Dickinson, Heidelberg, Germany). The tip of the scrubber was cut and measured about 1 mm and consequently the width of the scratch in the cell layer was also about 1 mm. Selected areas in the dishes were marked with a very fine marker pen and consecutive images were taken at different time points at 5×magnification under an inverted phase contrast microscope (Axiovert 25, Zeiss, Jena, Germany) equipped with a video camera. Following the experimental injury dishes were incubated in SHEM medium either containing no growth factors (control) or containing either GDNF (250 ng/ml) (recombinant human GDNF expressed in E. coli), NGF (250 ng/ml) (Boehringer Mannheim, Germany) or EGF ([…]). For experiments investigating artemin cells were cultured in medium 500 without additives and 250 ng artemin was added. For each condition four representative areas were evaluated within three dishes. The mean diameter of the scratch in each representative area was set as 100% at the beginning of the experiment. 18 hours later the mean diameter of the same scratch was calculated again and expressed in percent of the diameter at the beginning of the experiment.

[8] = system: corneal epithelial cells from the SV40 transformed cell line; assay: in vitro wound healing assay (scratch wound), cell line; type: cell-based, human; conditions: 18 h, control 20%±4.5
Procedure: as §2, §3

[9] = system: primary rabbit corneal epithelial cells; assay: in vitro wound healing assay (scratch wound), artemin; type: cell-based; conditions: 10 ng/ml; within 6 h; vs control
Procedure: as §2
The cell layer was injured under the microscope by inducing several parallel scratches with a soft plastic cell scrubber (Falcon, Becton and Dickinson, Heidelberg, Germany). The tip of the scrubber was cut and measured about 1 mm and consequently the width of the scratch in the cell layer was also about 1 mm. Selected areas in the dishes were marked with a very fine marker pen and consecutive images were taken at different time points at 5×magnification under an inverted phase contrast microscope (Axiovert 25, Zeiss, Jena, Germany) equipped with a video camera. […] For each condition four representative areas were evaluated within three dishes. […] 18 hours later the mean diameter of the same scratch was calculated again and expressed in percent of the diameter at the beginning of the experiment.

COc1cccc(-c2cc(=O)c3ccccc3o2)c1N [PD 98059, reference compound]
effect on BDNF-induced phosphorylation of ERK1 and ERK2 ([1]; PD 98059 100 μM 1 h before BDNF 200 ng/ml, epithelial cells): not inhibited | effect on GDNF-induced phosphorylation of ERK1 and ERK2 ([1]; PD 98059 100 μM 1 h before GDNF 200 ng/ml, epithelial cells): prevented | effect on NGF-induced phosphorylation of ERK1 and ERK2 ([1]; PD 98059 100 μM 1 h before NGF 200 ng/ml, epithelial cells): prevented | effect on phosphorylation of ERK1 in presence of BDNF ([2]; PD 98059 with BDNF 200 ng/ml): remained unchanged | effect on GDNF-induced phosphorylation of ERK1 ([2]; PD 98059 with GDNF 200 ng/ml): inhibited | effect on NGF-induced phosphorylation of ERK1 ([2]; PD 98059 with NGF 200 ng/ml): inhibited

CO[C@H]1[C@@H](OC)C[C@H](C)[C@@H](OC)C2=CC(=O)C=C(NC(=O)/C(C)=C/C=C\[C@H](OC)[C@@H](OC(N)=O)/C(C)=C/[C@@H]1C)C2=O [herbimycin A, reference compound]
GDNF-dependent tyrosine phosphorylation of Ret [3]: specifically inhibited | GDNF-dependent phosphorylation of Erk [4]: significantly decreased | GDNF-dependent phosphorylation of FAK [4]: significantly decreased | GDNF-dependent phosphorylation of cRaf [4]: significantly decreased | wound gap closed [5]: 19.2±5.5%

EGF: growth factor used as positive control at 10 ng/ml
total number of colonies [6]: 58±18 | gap in the cell monolayer filled ([7]; 10 ng/ml): 19.0%±8.6 | gap in the cell monolayer filled ([8]; 10 ng/ml): 44.6±9% | in vitro wound healing [9]: significant increase

NGF: recombinant human NGF, neurotrophic factor used as comparison / positive control
phosphorylation of ERK1 and ERK2 [1]: increased | phosphorylation of JNK1/2 [1]: not induced | activated JNK2 [2]: not induced | phosphorylation of ERK1 and ERK2 [2]: induced | phosphorylation of JNK1 [2]: weakly induced | gap in the cell monolayer filled ([7]; 250 ng/ml): 19.6%±3.1 | gap in the cell monolayer filled ([8]; 250 ng/ml): 27%±7.1

B1: BDNF: recombinant human BDNF, neurotrophic factor used for comparison (protein, UniProt P23560 19-247, looked up)
Neurotrophic factor BDNF …: APMKEANIRGQGGLAYPGVRTHGTLESVNGPKAGSRGLTSLADTFEHVIEELLDEDQKVRPNEENNKDADLYTSRVMLSSQVPLEPPLLFLLEEYKNYLDAANMSMRVRRHSDPARRGELSVCDSISEWVTAADKKTAVDMSGGTVTVLEKVPVSKGQLKQYFYETKCNPMGYTKEGCRGIDKRHWNSQCRTTQSYVRALTMDSKKRIGWRFIRIDTSCVCTLTIKRGR
phosphorylation of ERK1 and ERK2 [1]: increased | phosphorylation of JNK1/2 [1]: not induced | activated JNK2 [2]: not induced | phosphorylation of ERK1 and ERK2 [2]: did not induce | phosphorylation of JNK1 [2]: weakly induced
